Measured values: patent US8106015B2, “Method for enhancing immune response with peptide” (Juridical Foundation The Chemo-Sero-Therapeutic Research …, priority 2007, dated 2012)
“And” between values parts separate entries of the source, which are not always exact repeats. Equal values may be shown once.

Columns and labels:
Assay type in all cases: in vivo, C57BL/6 mice
anti-Aβ IgG antibody [1] = test: Example 5: anti-Aβ IgG antibody titer, cysteine at the C-terminal, the N-terminal and both terminals; conditions: Day 7 from the final 4th immunization; for Antibody titer, Mean: group mean of 4 mice; for Antibody titer: individual animals (No. 1-4), 100 μg/mouse, 2-week intervals, no adjuvant
anti-Aβ IgG antibody [2] = test: Example 6: anti-Aβ IgG antibody titer, Aβ peptide sequences with insertion of cysteine; conditions: Day 7 from the final 4th immunization; for Antibody titer, Mean: group mean of 4 mice; for Antibody titer: individual animals (No. 1-4), 100 μg/mouse, 2-week intervals, no adjuvant
anti-Aβ IgG antibody [3] = test: Example 3: anti-Aβ IgG antibody titer, Aβ peptides with addition of cysteine of 26-40 amino acids in length; conditions: Day 7 from final 3rd immunization; for Antibody titer, Mean: group mean of 4 mice; for Antibody titer: individual animals (No. 1-4), 100 μg/mouse, 3 times at 2-week intervals, no adjuvant
anti-Aβ IgG antibody [4] = test: Example 7: anti-Aβ IgG antibody titer, Aβ peptide with cysteine plus exogenous amino acid sequence; conditions: Day 7 from the final 4th immunization; for Antibody titer, Mean: group mean of 4 mice; for Antibody titer: individual animals (No. 1-4), 100 μg/mouse, 2-week intervals, no adjuvant
anti-Aβ IgG antibody [5] = test: Example 2: anti-Aβ IgG antibody titer, Aβ peptide with cysteine vs carrier-linked Aβ peptide with/without adjuvant; conditions: Day 7 from final 3rd immunization
anti-Aβ IgG antibody [6] = test: Example 1: anti-Aβ IgG antibody titer in murine serum after immunization with Aβ peptides with and without addition of cysteine
anti-Aβ IgG antibody [7] = test: Example 10: anti-Aβ IgG antibody titer, Aβ peptide with/without cysteine, with and without adjuvant; conditions: Day 7 from final 3rd immunization
anti-Aβ IgG antibody [8] = test: Example 4: anti-Aβ IgG antibody titer, Aβ peptides with 0, 1 or 2 molecules of cysteine added
[9] = group mean of 4 mice, serum, 100 μg/mouse intradermally or subcutaneously, 2-week intervals, no adjuvant

CDAEFRHDSGYEVHHQKLVFFAEDVGSNK [Cys28AA, Peptide with addition of 1 molecule of cysteine at the N-terminal]
Antibody titer, Mean (anti-Aβ IgG antibody [1]): 5891.8 ng/mL | Antibody titer (anti-Aβ IgG antibody [1]; listed as Cys2BAA): 7708 ng/mL and 423 ng/mL and 15328 ng/mL and 108 ng/mL

CDAEFRHDSGYEVHHQKLVFFAEDVGSNKC [Cys28AACys, Peptide with addition of each 1 molecule of cysteine at the C-terminal and the N-terminal]
Antibody titer, Mean (anti-Aβ IgG antibody [1]): 13051.6 ng/mL | Antibody titer (anti-Aβ IgG antibody [1]): 772 ng/mL and 49849 ng/mL and 1537 ng/mL and 48 ng/mL

DAEFRHDCSGYEVHHQKLVFFAEDVGSNK [28AA7Cys, 28-amino acid Aβ peptide with insertion of cysteine after residue 7]
Antibody titer, Mean (anti-Aβ IgG antibody [2]): 23.0 ng/mL | Antibody titer (anti-Aβ IgG antibody [2]): 21 ng/mL and 24 ng/mL and 17 ng/mL and 30 ng/mL

DAEFRHDSGYCEVHHQKLVFFAEDVGSNK [28AA10Cys, 28-amino acid Aβ peptide with insertion of cysteine after residue 10]
Antibody titer, Mean (anti-Aβ IgG antibody [2]): 17.7 ng/mL | Antibody titer (anti-Aβ IgG antibody [2]): 26 ng/mL and 19 ng/mL and 18 ng/mL and 8 ng/mL

DAEFRHDSGYEVHHQKLVCFFAEDVGSNK [28AA18Cys, 28-amino acid Aβ peptide with insertion of cysteine between 18th-19th amino acid residues]
Antibody inducing ability (anti-Aβ IgG antibody [2]): antibody inducing ability was found | Antibody inducing ability as compared to the group administered with 28AACys (anti-Aβ IgG antibody [2]): higher antibody inducing ability | Antibody titer, Mean (anti-Aβ IgG antibody [2]): 611899.2 ng/mL | Antibody titer (anti-Aβ IgG antibody [2]): 2163676 ng/mL and 92083 ng/mL and 54037 ng/mL and 137801 ng/mL

DAEFRHDSGYEVHHQKLVFFAEDVGCSNK [28AA25Cys, Aβ peptide with insertion of cysteine between the 25th and 26th amino acid residues]
Antibody inducing ability (anti-Aβ IgG antibody [2]): antibody inducing ability was found | Antibody titer, Mean (anti-Aβ IgG antibody [2]): 6860.8 ng/mL | Antibody titer (anti-Aβ IgG antibody [2]): 14972 ng/mL and 4721 ng/mL and 4483 ng/mL and 3267 ng/mL

DAEFRHDSGYEVHHQKLVFFAEDVGSC [26AACys, 26-amino acid Aβ peptide with addition of cysteine at the C-terminal]
Antibody titer, Mean (anti-Aβ IgG antibody [3]): 24.5 ng/mL | Antibody titer (anti-Aβ IgG antibody [3]): 39 ng/mL and 19 ng/mL (2×) and 21 ng/mL

DAEFRHDSGYEVHHQKLVFFAEDVGSNC [27AACys, 27-amino acid Aβ peptide with addition of cysteine at the C-terminal]
Antibody titer, Mean (anti-Aβ IgG antibody [3]): 19.0 ng/mL | Antibody titer (anti-Aβ IgG antibody [3]): 15 ng/mL and 19 ng/mL (2×) and 24 ng/mL

DAEFRHDSGYEVHHQKLVFFAEDVGSNKC [28AACys, 28-amino acid Aβ peptide with addition of cysteine]
Antibody inducing ability (anti-Aβ IgG antibody [4]): antibody inducing ability was found | Antibody titer, Mean (anti-Aβ IgG antibody [4]): 5070.2 ng/mL | Antibody titer (anti-Aβ IgG antibody [4]): 211 ng/mL and 365 ng/mL and 19578 ng/mL and 127 ng/mL | Antibody titer, Mean (anti-Aβ IgG antibody [5]; group mean of 5 mice): 4237.48 ng/mL | Antibody titer (anti-Aβ IgG antibody [5]; individual animals (No. 1-5), primary 100 μg, 2nd and 3rd 50 μg per animal, 2-week intervals): 1714.4 ng/mL and 5949.1 ng/mL and 10122.3 ng/mL and 716.6 ng/mL and 2685.0 ng/mL | Antibody titer, Mean (anti-Aβ IgG antibody [1]): 155867.0 ng/mL | Antibody titer (anti-Aβ IgG antibody [1]): 290461 ng/mL and 94 ng/mL and 139927 ng/mL and 192986 ng/mL | Antibody inducing ability against Aβ (anti-Aβ IgG antibody [3]): higher antibody titer | Antibody titer, Mean (anti-Aβ IgG antibody [3]): 51916.1 ng/mL | Antibody titer (anti-Aβ IgG antibody [3]): 3120 ng/mL and 2191 ng/mL and 115618 ng/mL and 86736 ng/mL | Increase in the antibody titer with addition of cysteine (anti-Aβ IgG antibody [6]; compared to the same Aβ peptide fragment without addition of cysteine): about 39 fold | Antibody titer, Day 7 from 2nd administration, Mean (anti-Aβ IgG antibody [6]; [9]): 157767.25 ng/mL | Antibody titer, Day 7 from 3rd administration, Mean (anti-Aβ IgG antibody [6]; [9]): 26043.00 ng/mL | Antibody titer, Day 7 from 2nd administration (anti-Aβ IgG antibody [6]; individual animals (No. 1-4), serum, 100 μg/mouse intradermally or subcutaneously, 2-week intervals, no adjuvant): 74096.0 ng/mL and 30542.0 ng/mL and 389239.0 ng/mL and 137192.0 ng/mL | Antibody titer, Day 7 from 3rd administration (anti-Aβ IgG antibody [6]; individual animals (No. 1-4), serum, 100 μg/mouse intradermally or subcutaneously, 3 times at 2-week intervals, no adjuvant): 20265.0 ng/mL and 2337.0 ng/mL and 69198.0 ng/mL and 12372.0 ng/mL | Antibody titer, Mean (anti-Aβ IgG antibody [7]; group mean of 4 mice): 19243.7 ng/mL | Antibody titer (anti-Aβ IgG antibody [7]; individual animals (No. 1-4), 100 μg Aβ peptide per animal, 3 times at 2-week intervals): 8847 ng/mL and 9458 ng/mL and 10446 ng/mL and 48224 ng/mL | Antibody inducing ability (anti-Aβ IgG antibody [8]; 1 vs 2 molecules of cysteine at the C-terminal): almost the same antibody inducing ability | Antibody titer, Mean (anti-Aβ IgG antibody [8]; group mean of 4 mice, Day 7 from the final 4th immunization): 5070.2 ng/mL | Antibody titer (anti-Aβ IgG antibody [8]; individual animals (No. 1-4), Day 7 from the final 4th immunization, 100 μg/mouse, 2-week intervals, no adjuvant): 211 ng/mL and 365 ng/mL and 19578 ng/mL and 127 ng/mL | Antibody inducing ability (anti-Aβ IgG antibody [2]): antibody inducing ability was found | Antibody titer, Mean (anti-Aβ IgG antibody [2]): 18946.0 ng/mL | Antibody titer (anti-Aβ IgG antibody [2]): 20883 ng/mL and 10503 ng/mL and 38907 ng/mL and 5491 ng/mL

DAEFRHDSGYEVHHQKLVFFAEDVGSNKCEIFEFTTD [Peptide with addition of cysteine at the C-terminal plus an exogenous peptide]
Antibody inducing ability (anti-Aβ IgG antibody [4]): antibody inducing ability was found | Antibody titer, Mean (anti-Aβ IgG antibody [4]): 21099.2 ng/mL | Antibody titer (anti-Aβ IgG antibody [4]): 8196 ng/mL and 28782 ng/mL and 2162 ng/mL and 45257 ng/mL

DAEFRHDSGYEVHHQKLVFFAEDVGSNKCGAIIG [33AA28Cys, Aβ peptide with insertion of cysteine between the 28th and 29th amino acid residues]
Antibody inducing ability (anti-Aβ IgG antibody [2]): antibody inducing ability was found | Antibody titer, Mean (anti-Aβ IgG antibody [2]): 4105.0 ng/mL | Antibody titer (anti-Aβ IgG antibody [2]): 245 ng/mL and 1932 ng/mL and 29 ng/mL and 14214 ng/mL

DAEFRHDSGYEVHHQKLVFFAEDVGSNKCGAIIGLM [35AA28Cys, Aβ peptide with insertion of cysteine between the 28th and 29th amino acid residues]
Antibody inducing ability (anti-Aβ IgG antibody [2]): antibody inducing ability was found | Antibody titer, Mean (anti-Aβ IgG antibody [2]): 6897.5 ng/mL | Antibody titer (anti-Aβ IgG antibody [2]): 1753 ng/mL and 17265 ng/mL and 2103 ng/mL and 6469 ng/mL

DAEFRHDSGYEVHHQKLVFFAEDVGSNKCTTD [28AACysTTD, Peptide with addition of cysteine at the C-terminal plus an exogenous peptide]
Antibody inducing ability (anti-Aβ IgG antibody [4]): antibody inducing ability was found | Antibody titer, Mean (anti-Aβ IgG antibody [4]): 28279.3 ng/mL | Antibody titer (anti-Aβ IgG antibody [4]): 46 ng/mL and 106899 ng/mL and 4316 ng/mL and 1855 ng/mL
